In PubChem BioAssay AID248 (DTP/NCI, 2004):
Values joined by “and” are separate entries in the source; they are usually repeats but may differ in a detail not shown here. Equal entries are not always repeated. Toxic doses and inconclusive results are not listed. Cut-off read from the data, not from the text of the source: active = T/C of 150% or more; inactive = T/C below 125%.

Tested on: L1210 leukemia ip in BDF1 mice, survival T/C
Experiment: NCI In Vivo Anticancer Drug Screen. Data for tumor model L1210 Leukemia (intraperitoneal) in B6D2F1 (BDF1) mice
Conditions: endpoint: mean survival time, higher = longer survival
Summary of the method: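 Tumor cells were implanted, animals were treated, and survival was followed. The result divides the treated measurement by the vehicle-control measurement.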

[1] = dose: 100.0 mg/kg/injection, schedule: Q04DX002 (ip), vehicle: Klucel (hydroxypropylcellulose) (HPC)
[2] = dose: 200.0 mg/kg/injection, schedule: Q04DX002 (ip), vehicle: Klucel (hydroxypropylcellulose) (HPC)
[3] = dose: 400.0 mg/kg/injection, schedule: Q04DX002 (ip), vehicle: Klucel (hydroxypropylcellulose) (HPC)
[4] = dose: 100.0 mg/kg/injection, schedule: Q01DX001 (ip), vehicle: carboxymethylcellulose (CMC)
[5] = dose: 200.0 mg/kg/injection, schedule: Q01DX001 (ip), vehicle: carboxymethylcellulose (CMC)
[6] = dose: 400.0 mg/kg/injection, schedule: Q01DX001 (ip), vehicle: carboxymethylcellulose (CMC)
[7] = dose: 50.0 mg/kg/injection, schedule: Q01DX001 (ip), vehicle: saline
[8] = dose: 100.0 mg/kg/injection, schedule: Q01DX001 (ip), vehicle: saline
[9] = dose: 200.0 mg/kg/injection, schedule: Q01DX001 (ip), vehicle: saline
[10] = dose: 400.0 mg/kg/injection, schedule: Q01DX001 (ip), vehicle: saline

Measured: T/C

CC(=O)Nc1ccccc1N
inactive: dose: 100.0 mg/kg/injection, schedule: Q01DX009 (ip), vehicle: saline 117 % of control | [1] 92 % of control | dose: 200.0 mg/kg/injection, schedule: Q01DX009 (ip), vehicle: saline 113 % of control | [2] 113 % of control | dose: 265.0 mg/kg/injection, schedule: Q01DX009 (ip), vehicle: saline 114 % of control | [3] 103 % of control

COc1ccc(NC(Nc2ccc(OC)cc2)C(Cl)(Cl)Cl)cc1
inactive: dose: 100.0 mg/kg/injection, schedule: Q01DX009 (ip), vehicle: other 90 % of control | dose: 100.0 mg/kg/injection, schedule: Q04DX003 (ip), vehicle: other 87 % of control | dose: 200.0 mg/kg/injection, schedule: Q01DX009 (ip), vehicle: other 93 % of control | dose: 200.0 mg/kg/injection, schedule: Q04DX003 (ip), vehicle: other 97 % of control | dose: 400.0 mg/kg/injection, schedule: Q01DX009 (ip), vehicle: other 123 % of control | dose: 400.0 mg/kg/injection, schedule: Q04DX003 (ip), vehicle: other 114 % of control

Oc1ccc(Cl)cc1/C=N/Nc1nnc(N/N=C/c2cc(Cl)ccc2O)c2ccccc12
inactive: dose: 50.0 mg/kg/injection, schedule: Q01DX001 (ip), vehicle: carboxymethylcellulose (CMC) 90 % of control | [4] 93 % of control | [5] 95 % of control | [6] 95 % of control

COc1ccc(N2CCN(c3c(N)cnc4ccccc34)CC2)c(OC)c1
inactive: [4] 97 % of control | [5] 103 % of control | [6] 97 % of control

COc1ccc(C)cc1CCCO
inactive: [7] 101 % of control | [8] 101 % of control | [9] 101 % of control | [10] 93 % of control

CCCCCCCCCCCC(=O)NC(=S)Nc1ccccc1F
inactive: dose: 100.0 mg/kg/injection, schedule: Q04DX003 (ip), vehicle: Klucel (hydroxypropylcellulose) (HPC) 95 % of control | dose: 200.0 mg/kg/injection, schedule: Q04DX003 (ip), vehicle: Klucel (hydroxypropylcellulose) (HPC) 87 % of control

COC1=NCCCCC1
inactive: dose: 50.0 mg/kg/injection, schedule: Q04DX003 (ip), vehicle: saline with Tween-80 94 % of control | dose: 100.0 mg/kg/injection, schedule: Q04DX003 (ip), vehicle: saline with Tween-80 99 % of control | dose: 200.0 mg/kg/injection, schedule: Q04DX003 (ip), vehicle: saline with Tween-80 91 % of control

Cc1ccc(C)n1-c1ccc(S(=O)(=O)c2ccc(NC(=O)CCC(=O)O)cc2)cc1
inactive: dose: 100.0 mg/kg/injection, schedule: Q01DX009 (ip), vehicle: saline with Tween-80 93 % of control | dose: 200.0 mg/kg/injection, schedule: Q01DX009 (ip), vehicle: saline with Tween-80 88 % of control | dose: 400.0 mg/kg/injection, schedule: Q01DX009 (ip), vehicle: saline with Tween-80 96 % of control

CCOC(=O)Nc1ccc(OCC)cc1
inactive: dose: 50.0 mg/kg/injection, schedule: Q01DX001 (ip), vehicle: Klucel (hydroxypropylcellulose) (HPC) 98 % of control | dose: 100.0 mg/kg/injection, schedule: Q01DX001 (ip), vehicle: Klucel (hydroxypropylcellulose) (HPC) 101 % of control | dose: 200.0 mg/kg/injection, schedule: Q01DX001 (ip), vehicle: Klucel (hydroxypropylcellulose) (HPC) 102 % of control and 106 % of control | dose: 400.0 mg/kg/injection, schedule: Q01DX001 (ip), vehicle: Klucel (hydroxypropylcellulose) (HPC) 97 % of control and 98 % of control

COc1ccccc1/C=N\NC(=S)Nc1ccc(F)cc1
inactive: dose: 60.0 mg/kg/injection, schedule: Q01DX Z (oral), vehicle: methylcellulose (MC) 106 % of control | dose: 120.0 mg/kg/injection, schedule: Q01DX Z (oral), vehicle: methylcellulose (MC) 90 % of control | dose: 240.0 mg/kg/injection, schedule: Q01DX Z (ip), vehicle: methylcellulose (MC) 92 % of control | dose: 240.0 mg/kg/injection, schedule: Q01DX Z (oral), vehicle: methylcellulose (MC) 96 % of control | dose: 480.0 mg/kg/injection, schedule: Q01DX Z (ip), vehicle: methylcellulose (MC) 91 % of control | dose: 480.0 mg/kg/injection, schedule: Q01DX Z (oral), vehicle: methylcellulose (MC) 93 % of control

O=NN1CCOCC1
inactive: [7] 104 % of control | [8] 93 % of control | [9] 104 % of control

Cc1ccc(OC(=O)C(C(=O)Oc2ccc(C)cc2)C(=O)Oc2ccc(C)cc2)cc1
inactive: dose: 25.0 mg/kg/injection, schedule: Q01DX001 (ip), vehicle: saline with Tween-80 104 % of control | dose: 50.0 mg/kg/injection, schedule: Q01DX001 (ip), vehicle: saline with Tween-80 101 % of control | dose: 100.0 mg/kg/injection, schedule: Q01DX001 (ip), vehicle: saline with Tween-80 95 % of control and 98 % of control

N/N=C(/CC1C(=O)Nc2ccccc21)c1ccccc1 (centres undefined)
inactive: [1] 94 % of control | [2] 108 % of control | [3] 91 % of control

O=S(=O)(/C=C/c1ccccc1)Oc1ccc(-c2ccccc2)cc1
inactive: dose: 100.0 mg/kg/injection, schedule: Q01DX001 (ip), vehicle: acetone 104 % of control | dose: 100.0 mg/kg/injection, schedule: Q01DX009 (ip), vehicle: acetone 90 % of control | dose: 100.0 mg/kg/injection, schedule: Q04DX003 (ip), vehicle: acetone 97 % of control | dose: 200.0 mg/kg/injection, schedule: Q01DX001 (ip), vehicle: acetone 98 % of control | dose: 200.0 mg/kg/injection, schedule: Q04DX003 (ip), vehicle: acetone 91 % of control | dose: 400.0 mg/kg/injection, schedule: Q01DX001 (ip), vehicle: acetone 98 % of control | dose: 400.0 mg/kg/injection, schedule: Q01DX009 (ip), vehicle: acetone 90 % of control | dose: 400.0 mg/kg/injection, schedule: Q04DX003 (ip), vehicle: acetone 91 % of control

C=C1C(=O)O[C@H]2C=C(C)[C@H]3[C@@H](OC(C)=O)C[C@@](C)(O)[C@@H]3C[C@H]12
inactive: dose: 50.0 mg/kg/injection, schedule: Q01DX Z (ip), vehicle: carboxymethylcellulose (CMC) 94 % of control

O=C(Nc1ncn[nH]1)C(F)(F)F
inactive: [8] 103 % of control | [9] 103 % of control | [10] 92 % of control

CCS(=O)(=O)c1nc2ccccc2[nH]1
inactive: [1] 97 % of control | [2] 108 % of control | [3] 108 % of control

CCCCCCCCCCCCCCCCCC(=O)[O][Hg][c]1ccccc1
inactive: dose: 5.0 mg/kg/injection, schedule: Q01DX001 (ip), vehicle: carboxymethylcellulose (CMC) 94 % of control | dose: 8.0 mg/kg/injection, schedule: Q01DX015 (ip), vehicle: carboxymethylcellulose (CMC) 96 % of control | dose: 10.0 mg/kg/injection, schedule: Q01DX001 (ip), vehicle: carboxymethylcellulose (CMC) 94 % of control | dose: 10.0 mg/kg/injection, schedule: Q01DX009 (ip), vehicle: saline with Tween-80 94 % of control | dose: 16.0 mg/kg/injection, schedule: Q01DX015 (ip), vehicle: carboxymethylcellulose (CMC) 92 % of control | dose: 20.0 mg/kg/injection, schedule: Q01DX001 (ip), vehicle: carboxymethylcellulose (CMC) 92 % of control | dose: 20.0 mg/kg/injection, schedule: Q01DX009 (ip), vehicle: saline with Tween-80 110 % of control | dose: 20.0 mg/kg/injection, schedule: Q04DX003 (ip), vehicle: saline 102 % of control | dose: 32.0 mg/kg/injection, schedule: Q01DX015 (ip), vehicle: carboxymethylcellulose (CMC) 94 % of control | dose: 40.0 mg/kg/injection, schedule: Q01DX001 (ip), vehicle: carboxymethylcellulose (CMC) 100 % of control | dose: 40.0 mg/kg/injection, schedule: Q04DX003 (ip), vehicle: saline 98 % of control

CN1CCC(=O)N1
inactive: [8] 100 % of control | [9] 100 % of control | [10] 98 % of control
